Measured values taken from PMC8256334, “Simultaneous Determination of a Novel PD-L1 Inhibitor, IMMH-010, and Its Active Metabolite, YPD-29B, in Rat Biological Matrices by Polarity-Switching Liquid Chromatography-Tandem Mass Spectrometry: Application to ADME Studies” (Frontiers in Pharmacology, 2021).
Where two headings read alike, the source gives them in different places.

Experiment: Tissue distribution study in rats
Assay type: in vivo, Sprague-Dawley rats
Conditions: for concentration in adrenal gland / concentration in brain / concentration in heart / concentration in kidney / concentration in liver / concentration in lung / concentration in lymph / concentration in plasma / concentration in spleen / concentration in thymus: n = 5; for Kp at 0.25 h / Kp at 0.5 h / Kp at 4 h: female, Sprague-Dawley, rat, oral, i.g. 10 mg/kg IMMH-010 maleate, read-out: T/P (tissue-to-plasma partition)
Protocol: Female Sprague-Dawley rats (200 ± 20 g, Vital River, Beijing, China) were kept in standard environmental conditions. Rats were fasted overnight with free access to water and randomly assigned to different groups before the experiments. All animal protocols were approved by the Institute Animal Care and Welfare Committee of the Institute of Materia Medica, Chinese Academy of Medical Sciences and Peking Union Medical College.
The tissue distribution study was performed 15 min, 30 min, 4 h and 12 h after i. g. administration of 10 mg/kg IMMH-010 maleate. Blood was collected and centrifuged at 5,000 rpm for 10 min. The heart, liver, brain, spleen, lung, kidney, adrenal gland, thymus, and lymph were harvested immediately. The tissues were washed with normal saline and blotted dry with filter paper. All samples were stored at -20°C before analysis.

[1] = time 0.25 (15 min) after i.g. 10 mg/kg IMMH-010 maleate
[2] = time 0.5 (30 min) after i.g. 10 mg/kg IMMH-010 maleate
[3] = time 4 (4 h) after i.g. 10 mg/kg IMMH-010 maleate

Which results are given for `O=C(O)[C@H](CO)NCc1cc(Cl)c(OCc2cccc(-c3ccccc3)c2Br)cc1OCc1cccnc1` [YPD-29B]?
concentration in adrenal gland (adrenal gland, time 0.25 (15 min) after i.g. 10 mg/kg IMMH-010 maleate): 15.3 ± 10.8 ng/ml or ng/g; concentration in adrenal gland (adrenal gland, time 0.5 (30 min) after i.g. 10 mg/kg IMMH-010 maleate): 39.7 ± 45.3 ng/ml or ng/g; concentration in adrenal gland (adrenal gland, time 4 (4 h) after i.g. 10 mg/kg IMMH-010 maleate): BLQ; concentration in brain [1]: BLQ; concentration in brain [2]: BLQ; concentration in brain [3]: BLQ; Kp at 0.25 h (adrenal gland): 0.5; Kp at 0.5 h (adrenal gland): 0.7; Kp at 0.25 h (heart): 0.5; Kp at 0.5 h (heart): 0.7; Kp at 0.25 h (kidney): 2; Kp at 0.5 h (kidney): 4.8; Kp at 4 h (kidney): 34.6; Kp at 0.25 h (liver): 43.8; Kp at 0.5 h (liver): 58.2; Kp at 4 h (liver): 40.1; Kp at 0.25 h (lung): 1.1; Kp at 0.5 h (lung): 2; Kp at 4 h (lung): 4.4; Kp at 0.25 h (lymph): 1.6; Kp at 0.5 h (lymph): 6.8; Kp at 4 h (lymph): 9.1; Kp at 0.25 h (spleen): 0.5; Kp at 0.5 h (spleen): 0.9; Kp at 0.5 h (thymus): 0.05; Kp at 4 h (thymus): 0.5; concentration in heart (heart, time 0.25 (15 min) after i.g. 10 mg/kg IMMH-010 maleate): 17.3 ± 11.9 ng/ml or ng/g; concentration in heart (heart, time 0.5 (30 min) after i.g. 10 mg/kg IMMH-010 maleate): 39.6 ± 33.7 ng/ml or ng/g; concentration in heart (heart, time 4 (4 h) after i.g. 10 mg/kg IMMH-010 maleate): BLQ; concentration in kidney (kidney, time 0.25 (15 min) after i.g. 10 mg/kg IMMH-010 maleate): 64.2 ± 40.4 ng/ml or ng/g; concentration in kidney (kidney, time 0.5 (30 min) after i.g. 10 mg/kg IMMH-010 maleate): 265 ± 222 ng/ml or ng/g; concentration in kidney (kidney, time 4 (4 h) after i.g. 10 mg/kg IMMH-010 maleate): 168 ± 23 ng/ml or ng/g; concentration in liver (liver, time 0.25 (15 min) after i.g. 10 mg/kg IMMH-010 maleate): 1,403 ± 962 ng/ml or ng/g; concentration in liver (liver, time 0.5 (30 min) after i.g. 10 mg/kg IMMH-010 maleate): 3,239 ± 2,833 ng/ml or ng/g; concentration in liver (liver, time 4 (4 h) after i.g. 10 mg/kg IMMH-010 maleate): 195 ± 56 ng/ml or ng/g; concentration in lung (lung, time 0.25 (15 min) after i.g. 10 mg/kg IMMH-010 maleate): 35.7 ± 22.8 ng/ml or ng/g; concentration in lung (lung, time 0.5 (30 min) after i.g. 10 mg/kg IMMH-010 maleate): 109 ± 104 ng/ml or ng/g; concentration in lung (lung, time 4 (4 h) after i.g. 10 mg/kg IMMH-010 maleate): 21.4 ± 6.8 ng/ml or ng/g; concentration in lymph (lymph, time 0.25 (15 min) after i.g. 10 mg/kg IMMH-010 maleate): 51.5 ± 41.0 ng/ml or ng/g; concentration in lymph (lymph, time 0.5 (30 min) after i.g. 10 mg/kg IMMH-010 maleate): 378 ± 451 ng/ml or ng/g; concentration in lymph (lymph, time 4 (4 h) after i.g. 10 mg/kg IMMH-010 maleate): 44.0 ± 13.9 ng/ml or ng/g; concentration in plasma [1]: 32.0 ± 25.2 ng/ml or ng/g; concentration in plasma [2]: 55.7 ± 51.6 ng/ml or ng/g; concentration in plasma [3]: 4.86 ± 1.39 ng/ml or ng/g; concentrations in tissues at 12 h (rat tissues, 12 h after oral 10 mg/kg IMMH-010 maleate): below the LLOQ; tissues of main distribution (rats, oral 10 mg/kg IMMH-010 maleate): liver, followed by the lymph, kidney, and lung; concentration in spleen (spleen, time 0.25 (15 min) after i.g. 10 mg/kg IMMH-010 maleate): 15.1 ± 10.8 ng/ml or ng/g; concentration in spleen (spleen, time 0.5 (30 min) after i.g. 10 mg/kg IMMH-010 maleate): 48.4 ± 47.9 ng/ml or ng/g; concentration in spleen (spleen, time 4 (4 h) after i.g. 10 mg/kg IMMH-010 maleate): BLQ; concentration in thymus (thymus, time 0.25 (15 min) after i.g. 10 mg/kg IMMH-010 maleate): BLQ; concentration in thymus (thymus, time 0.5 (30 min) after i.g. 10 mg/kg IMMH-010 maleate): 2.74 ± 6.12 ng/ml or ng/g; concentration in thymus (thymus, time 4 (4 h) after i.g. 10 mg/kg IMMH-010 maleate): 2.23 ± 4.99 ng/ml or ng/g
